pIC50: −log10 of the molar value. The source made the active and inactive calls. The rule behind the calls is not given here.
Assays:
BT-549 [1] = test: Cell cycle arrest in human BT549 cells assessed as accumulation of cells at S phase at 2.5 uM after 24 hrs by propidium iodide staining-based flow cytometric analysis (reference value: 25.10%); format: functional
BT-549 [2] = test: Inhibition of colony formation in human BT549 cells after 2 weeks by crystal violet staining-based assay; format: functional, cell-based
BT-549 [3] = test: Induction of apoptosis in human BT549 cells assessed as early apoptotic cells at 5 uM by Annexin V-FITC/propidium iodide staining-based flow cytometric analysis relative to control; format: functional
SK-HEP1 = test: Cytotoxicity against human SKHEP1 cells after 72 hrs by SRB assay; format: functional, cell-based; details: SK-HEP1, 72 h
BT-549 [4] = test: Inhibition of colony formation in human BT549 cells assessed as colony formation rate at 2.5 uM after 2 weeks by crystal violet staining-based assay relative to control; format: functional; parameters: scale not given: the % may be the effect or the level left
BT-549 [5] = test: Induction of apoptosis in human BT549 cells assessed as late apoptotic cells at 1 uM by Annexin V-FITC/propidium iodide staining-based flow cytometric analysis relative to control; format: functional
BT-549 [6] = test: Cell cycle arrest in human BT549 cells assessed as accumulation of cells at S phase at 5 uM after 24 hrs by propidium iodide staining-based flow cytometric analysis (reference value: 25.10%); format: functional
MCF7 = test: Cytotoxicity against human MCF7 cells after 72 hrs by SRB assay; format: functional, cell-based; details: MCF7, 72 h
BT-549 [7] = test: Cell cycle arrest in human BT549 cells assessed as accumulation of cells at G2 phase at 2.5 uM after 24 hrs by propidium iodide staining-based flow cytometric analysis (reference value: 18.96%); format: functional
BT-549 [8] = test: Induction of apoptosis in human BT549 cells assessed as early apoptotic cells at 1 uM by Annexin V-FITC/propidium iodide staining-based flow cytometric analysis relative to control; format: functional
[9] = molecular target: T1, Phosphatidylinositol 4,5-bisphosphate 3-kinase catalytic subunit delta isoform (Homo sapiens, UniProt O00329); test: Inhibition of PI3K p110delta (unknown origin) using PIP2 as substrate by ELISA
T1 sequence (O00329 whole entry): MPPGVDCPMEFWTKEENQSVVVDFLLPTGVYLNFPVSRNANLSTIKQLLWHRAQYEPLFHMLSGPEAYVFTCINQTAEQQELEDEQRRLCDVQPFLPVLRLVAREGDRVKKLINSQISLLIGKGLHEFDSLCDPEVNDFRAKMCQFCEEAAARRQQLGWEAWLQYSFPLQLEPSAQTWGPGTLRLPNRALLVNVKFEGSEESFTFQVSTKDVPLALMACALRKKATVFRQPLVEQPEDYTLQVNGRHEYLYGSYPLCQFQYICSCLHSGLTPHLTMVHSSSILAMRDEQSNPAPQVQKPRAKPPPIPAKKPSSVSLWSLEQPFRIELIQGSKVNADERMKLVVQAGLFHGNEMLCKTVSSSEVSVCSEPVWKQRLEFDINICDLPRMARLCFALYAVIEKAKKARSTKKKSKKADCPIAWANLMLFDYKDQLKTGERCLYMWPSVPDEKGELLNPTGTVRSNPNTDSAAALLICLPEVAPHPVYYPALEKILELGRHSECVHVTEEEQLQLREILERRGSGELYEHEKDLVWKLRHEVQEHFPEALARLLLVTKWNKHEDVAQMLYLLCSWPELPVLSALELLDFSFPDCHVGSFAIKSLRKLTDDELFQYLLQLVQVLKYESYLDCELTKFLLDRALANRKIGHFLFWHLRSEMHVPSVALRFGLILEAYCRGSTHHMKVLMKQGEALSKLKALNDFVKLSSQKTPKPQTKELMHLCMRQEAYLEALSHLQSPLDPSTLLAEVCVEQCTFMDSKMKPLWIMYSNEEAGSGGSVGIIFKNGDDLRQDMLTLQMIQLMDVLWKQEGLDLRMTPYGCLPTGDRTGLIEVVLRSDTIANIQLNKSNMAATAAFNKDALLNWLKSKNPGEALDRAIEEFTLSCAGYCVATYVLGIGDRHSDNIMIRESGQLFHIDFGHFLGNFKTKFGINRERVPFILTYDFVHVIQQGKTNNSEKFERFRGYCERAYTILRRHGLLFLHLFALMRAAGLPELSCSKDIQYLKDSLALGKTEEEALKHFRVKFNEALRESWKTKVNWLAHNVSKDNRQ

BT-549 [10] = test: Cell cycle arrest in human BT549 cells assessed as accumulation of cells at G1 phase after 24 hrs by propidium iodide staining-based flow cytometric analysis; format: functional
[11] = molecular target: Phosphatidylinositol 4,5-bisphosphate 3-kinase catalytic subunit gamma isoform (Homo sapiens, UniProt P48736); test: Inhibition of PI3K p110gamma (unknown origin) using PIP2 as substrate by ELISA
BT-549 [12] = test: Induction of apoptosis in human BT549 cells assessed as chromatin condensation at 1 to 5 uM after 24 hrs by DAPI staining-based fluorescence microscopic analysis; format: functional, cell-based
BT-549 [13] = test: Cell cycle arrest in human BT549 cells assessed as accumulation of cells at G1 phase at 5 uM after 24 hrs by propidium iodide staining-based flow cytometric analysis (reference value: 55.93%); format: functional
BT-549 [14] = test: Cell cycle arrest in human BT549 cells assessed as accumulation of cells at G2 phase at 1 uM after 24 hrs by propidium iodide staining-based flow cytometric analysis (reference value: 18.96%); format: functional
BT-549 [15] = test: Induction of apoptosis in human BT549 cells assessed as early apoptotic cells at 2.5 uM by Annexin V-FITC/propidium iodide staining-based flow cytometric analysis relative to control; format: functional
BT-549 [16] = test: Cell cycle arrest in human BT549 cells assessed as accumulation of cells at G2 phase at 5 uM after 24 hrs by propidium iodide staining-based flow cytometric analysis (reference value: 18.96%); format: functional
[17] = molecular target: Phosphatidylinositol 4,5-bisphosphate 3-kinase catalytic subunit alpha isoform (Homo sapiens, UniProt P42336); test: Inhibition of PI3K p110alpha (unknown origin) using PIP2 as substrate by ELISA
BT-549 [18] = test: Inhibition of colony formation in human BT549 cells assessed as colony formation rate at 5 uM after 2 weeks by crystal violet staining-based assay relative to control; format: functional; parameters: scale not given: the % may be the effect or the level left
BT-549 [19] = test: Induction of apoptosis in human BT549 cells assessed as late apoptotic cells at 2.5 uM by Annexin V-FITC/propidium iodide staining-based flow cytometric analysis relative to control; format: functional
BT-549 [20] = test: Cell cycle arrest in human BT549 cells assessed as accumulation of cells at G1 phase at 1 uM after 24 hrs by propidium iodide staining-based flow cytometric analysis (reference value: 55.93%); format: functional
SNU-638 = test: Cytotoxicity against human SNU638 cells after 72 hrs by SRB assay; format: functional, cell-based; details: SNU-638, 72 h
BT-549 [21] = test: Induction of apoptosis in human BT549 cells assessed as nuclear fragmentation at 1 to 5 uM after 24 hrs by DAPI staining-based fluorescence microscopic analysis; format: functional, cell-based
BT-549 [22] = test: Cytotoxicity against human BT549 cells after 72 hrs by SRB assay; format: functional, cell-based; details: BT-549, 72 h
[23] = molecular target: Phosphatidylinositol 4,5-bisphosphate 3-kinase catalytic subunit beta isoform (Homo sapiens, UniProt P42338); test: Inhibition of PI3K p110beta (unknown origin) using PIP2 as substrate by ELISA
A549 = test: Cytotoxicity against human A549 cells after 72 hrs by SRB assay; format: functional, cell-based; details: A549, 72 h
BT-549 [24] = test: Cell cycle arrest in human BT549 cells assessed as accumulation of cells at S phase at 1 uM after 24 hrs by propidium iodide staining-based flow cytometric analysis (reference value: 25.10%); format: functional
BT-549 [25] = test: Induction of apoptosis in human BT549 cells assessed as late apoptotic cells at 5 uM by Annexin V-FITC/propidium iodide staining-based flow cytometric analysis relative to control; format: functional
Homo sapiens = species: Homo sapiens; test: Inhibition of PI3K in human BT549 cells assessed as decrease in Akt phosphorylation at Ser473 by Western blot analysis; format: cell-based
BT-549 [26] = test: Cell cycle arrest in human BT549 cells assessed as accumulation of cells at G1 phase at 2.5 uM after 24 hrs by propidium iodide staining-based flow cytometric analysis (reference value: 55.93%); format: functional
HCT-116 = test: Cytotoxicity against human HCT116 cells after 72 hrs by SRB assay; format: functional, cell-based; details: HCT-116, 72 h
[27] = molecular target: Epidermal growth factor receptor (Homo sapiens, UniProt P00533); test: Inhibition of EGFR (unknown origin) using FAM-labeled peptide as substrate preincubated for 10 mins followed by substrate addition and measured after 1 hr by mobility shift assay
Epidermal growth factor receptor, sequence (P00533 whole entry): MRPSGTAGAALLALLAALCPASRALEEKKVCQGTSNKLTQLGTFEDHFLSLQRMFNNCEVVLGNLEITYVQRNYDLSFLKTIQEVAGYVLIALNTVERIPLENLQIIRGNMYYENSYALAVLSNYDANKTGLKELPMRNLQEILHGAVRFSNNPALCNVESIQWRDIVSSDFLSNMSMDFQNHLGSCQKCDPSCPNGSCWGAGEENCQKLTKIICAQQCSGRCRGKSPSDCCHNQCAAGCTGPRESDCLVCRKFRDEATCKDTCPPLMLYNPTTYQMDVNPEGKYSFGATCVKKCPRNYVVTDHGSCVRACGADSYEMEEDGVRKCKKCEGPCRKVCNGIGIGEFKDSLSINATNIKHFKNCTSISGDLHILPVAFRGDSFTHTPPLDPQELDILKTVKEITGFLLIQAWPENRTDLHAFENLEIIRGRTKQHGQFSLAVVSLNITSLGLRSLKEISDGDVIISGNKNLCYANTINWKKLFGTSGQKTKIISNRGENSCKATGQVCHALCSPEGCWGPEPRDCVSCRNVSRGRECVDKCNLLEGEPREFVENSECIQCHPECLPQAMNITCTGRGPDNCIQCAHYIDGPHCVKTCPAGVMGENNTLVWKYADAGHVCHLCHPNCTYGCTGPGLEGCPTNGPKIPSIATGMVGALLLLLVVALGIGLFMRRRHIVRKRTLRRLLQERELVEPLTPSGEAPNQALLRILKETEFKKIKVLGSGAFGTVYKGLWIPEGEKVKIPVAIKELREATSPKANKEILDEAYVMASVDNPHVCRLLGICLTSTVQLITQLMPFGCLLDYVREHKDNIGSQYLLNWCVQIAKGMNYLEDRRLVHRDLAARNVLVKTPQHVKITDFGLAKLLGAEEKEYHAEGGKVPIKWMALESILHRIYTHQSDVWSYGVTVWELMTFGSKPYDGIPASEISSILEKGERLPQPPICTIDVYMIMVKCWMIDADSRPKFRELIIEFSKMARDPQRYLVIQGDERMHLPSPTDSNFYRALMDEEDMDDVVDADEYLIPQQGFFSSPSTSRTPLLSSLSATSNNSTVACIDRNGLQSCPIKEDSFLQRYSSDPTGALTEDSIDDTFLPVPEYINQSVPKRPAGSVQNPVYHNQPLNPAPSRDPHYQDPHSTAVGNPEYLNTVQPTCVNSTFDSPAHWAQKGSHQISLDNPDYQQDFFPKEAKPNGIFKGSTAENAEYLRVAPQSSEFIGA

Phosphatidylinositol 4,5-bisphosphate 3-kinase catalytic subunit gamma isoform, sequence (P48736 whole entry, canonical isoform): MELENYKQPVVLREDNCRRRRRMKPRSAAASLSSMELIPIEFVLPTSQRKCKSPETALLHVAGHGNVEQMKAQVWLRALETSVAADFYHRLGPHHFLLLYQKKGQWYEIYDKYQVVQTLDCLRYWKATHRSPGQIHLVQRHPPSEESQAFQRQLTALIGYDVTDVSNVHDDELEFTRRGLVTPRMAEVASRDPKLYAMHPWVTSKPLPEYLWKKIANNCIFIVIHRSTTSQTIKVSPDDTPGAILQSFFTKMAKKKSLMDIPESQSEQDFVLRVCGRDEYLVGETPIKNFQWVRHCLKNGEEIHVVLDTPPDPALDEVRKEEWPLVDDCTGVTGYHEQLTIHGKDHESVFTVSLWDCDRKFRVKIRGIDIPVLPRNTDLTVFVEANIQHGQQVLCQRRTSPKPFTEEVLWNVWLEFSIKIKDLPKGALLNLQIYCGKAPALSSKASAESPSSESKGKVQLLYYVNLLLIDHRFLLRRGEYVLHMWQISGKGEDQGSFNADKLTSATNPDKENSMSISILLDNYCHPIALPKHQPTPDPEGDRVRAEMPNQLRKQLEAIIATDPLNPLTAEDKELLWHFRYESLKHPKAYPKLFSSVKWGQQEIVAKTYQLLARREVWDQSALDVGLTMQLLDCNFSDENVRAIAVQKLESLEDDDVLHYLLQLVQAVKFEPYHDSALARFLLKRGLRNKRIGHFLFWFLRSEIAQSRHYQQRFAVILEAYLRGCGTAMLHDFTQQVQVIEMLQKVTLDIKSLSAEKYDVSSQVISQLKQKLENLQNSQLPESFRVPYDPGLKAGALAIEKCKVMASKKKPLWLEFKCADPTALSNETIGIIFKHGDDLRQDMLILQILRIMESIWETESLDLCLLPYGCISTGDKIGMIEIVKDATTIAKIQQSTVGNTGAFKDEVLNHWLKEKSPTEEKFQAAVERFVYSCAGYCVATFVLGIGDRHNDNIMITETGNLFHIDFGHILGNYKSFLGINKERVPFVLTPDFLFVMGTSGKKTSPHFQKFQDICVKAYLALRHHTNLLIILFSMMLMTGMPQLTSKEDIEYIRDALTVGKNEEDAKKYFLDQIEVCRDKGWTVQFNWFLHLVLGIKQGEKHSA
Phosphatidylinositol 4,5-bisphosphate 3-kinase catalytic subunit alpha isoform, sequence (P42336 whole entry, canonical isoform): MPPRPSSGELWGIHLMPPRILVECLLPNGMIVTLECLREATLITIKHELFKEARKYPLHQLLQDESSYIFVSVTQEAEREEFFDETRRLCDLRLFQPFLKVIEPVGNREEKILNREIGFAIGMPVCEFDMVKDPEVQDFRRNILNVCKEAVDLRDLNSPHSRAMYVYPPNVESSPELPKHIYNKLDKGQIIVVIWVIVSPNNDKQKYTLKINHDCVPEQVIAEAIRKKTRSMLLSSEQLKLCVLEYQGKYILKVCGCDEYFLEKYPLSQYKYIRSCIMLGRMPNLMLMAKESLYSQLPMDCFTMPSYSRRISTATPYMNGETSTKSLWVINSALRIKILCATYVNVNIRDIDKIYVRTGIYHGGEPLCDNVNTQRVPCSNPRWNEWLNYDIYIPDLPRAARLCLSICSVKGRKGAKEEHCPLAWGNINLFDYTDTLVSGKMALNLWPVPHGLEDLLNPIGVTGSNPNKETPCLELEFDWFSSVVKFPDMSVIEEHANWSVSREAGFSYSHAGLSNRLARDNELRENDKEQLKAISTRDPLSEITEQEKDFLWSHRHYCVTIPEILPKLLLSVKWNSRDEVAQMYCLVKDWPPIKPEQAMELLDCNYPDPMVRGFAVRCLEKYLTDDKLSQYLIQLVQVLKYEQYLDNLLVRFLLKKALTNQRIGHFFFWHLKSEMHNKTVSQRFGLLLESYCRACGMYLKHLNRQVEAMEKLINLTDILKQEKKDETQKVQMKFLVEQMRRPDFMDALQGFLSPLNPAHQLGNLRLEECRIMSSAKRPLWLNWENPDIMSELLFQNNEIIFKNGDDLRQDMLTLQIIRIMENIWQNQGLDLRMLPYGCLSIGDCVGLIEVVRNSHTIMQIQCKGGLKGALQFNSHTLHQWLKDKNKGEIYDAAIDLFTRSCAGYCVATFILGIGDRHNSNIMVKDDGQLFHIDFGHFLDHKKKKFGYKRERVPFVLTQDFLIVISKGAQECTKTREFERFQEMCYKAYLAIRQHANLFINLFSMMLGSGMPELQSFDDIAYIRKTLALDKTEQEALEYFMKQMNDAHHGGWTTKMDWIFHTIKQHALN
Phosphatidylinositol 4,5-bisphosphate 3-kinase catalytic subunit beta isoform, sequence (P42338 whole entry, canonical isoform): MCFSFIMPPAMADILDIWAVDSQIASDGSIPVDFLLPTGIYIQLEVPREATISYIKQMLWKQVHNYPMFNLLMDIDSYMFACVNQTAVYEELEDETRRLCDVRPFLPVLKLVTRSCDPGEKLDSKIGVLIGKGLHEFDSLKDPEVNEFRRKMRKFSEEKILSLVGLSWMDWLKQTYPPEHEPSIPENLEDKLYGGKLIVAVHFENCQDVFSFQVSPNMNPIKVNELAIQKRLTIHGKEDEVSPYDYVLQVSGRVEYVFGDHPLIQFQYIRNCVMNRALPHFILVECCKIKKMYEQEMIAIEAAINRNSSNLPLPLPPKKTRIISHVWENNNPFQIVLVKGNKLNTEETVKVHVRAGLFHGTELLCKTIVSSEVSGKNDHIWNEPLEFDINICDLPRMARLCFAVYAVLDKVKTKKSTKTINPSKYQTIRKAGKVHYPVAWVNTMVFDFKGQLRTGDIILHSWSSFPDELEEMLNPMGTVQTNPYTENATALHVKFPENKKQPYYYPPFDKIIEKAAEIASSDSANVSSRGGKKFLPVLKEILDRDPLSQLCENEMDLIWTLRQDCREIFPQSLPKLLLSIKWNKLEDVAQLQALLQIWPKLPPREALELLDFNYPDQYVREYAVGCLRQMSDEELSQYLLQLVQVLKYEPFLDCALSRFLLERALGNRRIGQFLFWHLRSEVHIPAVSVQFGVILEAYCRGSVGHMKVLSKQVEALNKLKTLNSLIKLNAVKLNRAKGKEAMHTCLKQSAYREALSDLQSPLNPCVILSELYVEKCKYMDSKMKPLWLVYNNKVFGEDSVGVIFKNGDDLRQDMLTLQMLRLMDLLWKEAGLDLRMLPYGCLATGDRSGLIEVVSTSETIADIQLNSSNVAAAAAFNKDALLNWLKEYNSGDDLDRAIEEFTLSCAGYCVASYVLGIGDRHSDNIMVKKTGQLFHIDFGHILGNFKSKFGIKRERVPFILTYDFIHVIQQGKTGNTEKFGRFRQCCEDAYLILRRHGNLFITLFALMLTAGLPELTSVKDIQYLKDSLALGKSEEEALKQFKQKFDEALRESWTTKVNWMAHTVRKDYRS

CCS(=O)(=O)Nc1cc(-c2ccc3ncnc(Nc4ccc(F)c(Cl)c4)c3c2)cnc1OC
Activity (BT-549 [1]): 6.86% | inhibition (BT-549 [2]): Dose-dependent effect | Activity (BT-549 [3]): 54.71% | pIC50 (SK-HEP1): 5.21 | Activity (BT-549 [4]): 55.6% | Activity (BT-549 [5]): 1.79% | Activity (BT-549 [6]): 0.92% | pIC50 (MCF7): 5.25 | Activity (BT-549 [7]): 17.77% | Activity (BT-549 [8]): 30.52% | pIC50 [9]: 5.06 | Activity (BT-549 [10]): Dose-dependent effect | pIC50 [11]: 5.45 | Activity (BT-549 [12]): Active | Activity (BT-549 [13]): 80.7% | Activity (BT-549 [14]): 24.16% | Activity (BT-549 [15]): 56.69% | Activity (BT-549 [16]): 18.37% | pIC50 [17]: 6.50 | Activity (BT-549 [18]): 25.7% | Activity (BT-549 [19]): 2.05% | Activity (BT-549 [20]): 69.31% | pIC50 (SNU-638): 5.39 | Activity (BT-549 [21]): Active | pIC50 (BT-549 [22]): 5.99 | pIC50 [23]: 5.03 | pIC50 (A549): 5.08 | Activity (BT-549 [24]): 6.52% | Activity (BT-549 [25]): 2.27% | inhibition (Homo sapiens): Dose-dependent effect | Activity (BT-549 [26]): 75.36% | pIC50 (HCT-116): 5.25

CCS(=O)(=O)Nc1cc(-c2ccc3ncnc(Nc4cccc(C(=O)OC)c4)c3c2)cnc1OC
pIC50 (SK-HEP1): 5.62 | pIC50 (MCF7): 5.00 | pIC50 [9]: 5.36 | pIC50 [27]: 6.39 | pIC50 [11]: 5.75 | pIC50 [17]: 6.78 | pIC50 (SNU-638): 5.95 | pIC50 (BT-549 [22]): 5.97 | pIC50 [23]: 5.31 | pIC50 (A549): 5.96 | pIC50 (HCT-116): 6.40

CCS(=O)(=O)Nc1cc(-c2ccc3ncnc(Nc4ccc(OC)c(OC)c4)c3c2)cnc1OC
pIC50 (SK-HEP1): 5.55 | pIC50 (MCF7): 5.61 | pIC50 (SNU-638): 5.77 | pIC50 (BT-549 [22]): 5.59 | pIC50 (A549): 5.24 | pIC50 (HCT-116): 5.36

CCS(=O)(=O)Nc1cc(-c2ccc3ncnc(Nc4ccc(F)cc4)c3c2)cnc1OC
pIC50 (SK-HEP1): 5.83 | pIC50 (MCF7): 5.19 | pIC50 (SNU-638): 5.62 | pIC50 (BT-549 [22]): 5.51 | pIC50 (A549): 5.12 | pIC50 (HCT-116): 5.50

CCCCS(=O)(=O)Nc1cc(-c2ccc3ncnc(Nc4ccc(F)c(Cl)c4)c3c2)cnc1OC
pIC50 (SK-HEP1): 4.27 | pIC50 (MCF7): 4.18 | pIC50 (SNU-638): 5.27 | pIC50 (BT-549 [22]): 4.25 | pIC50 (A549): 4.11 | pIC50 (HCT-116): 5.00

CCS(=O)(=O)Nc1cc(-c2ccc3ncnc(Nc4cccc(F)c4)c3c2)cnc1OC
pIC50 (SK-HEP1): 5.73 | pIC50 (MCF7): 5.10 | pIC50 (SNU-638): 5.56 | pIC50 (BT-549 [22]): 5.56 | pIC50 (A549): 5.00 | pIC50 (HCT-116): 5.40

Cn1c(=O)n(-c2ccc(C(C)(C)C#N)cc2)c2c3cc(-c4cnc5ccccc5c4)ccc3ncc21 [DACTOLISIB]
pIC50 (SK-HEP1): 5.74 | pIC50 (MCF7): 5.88 | pIC50 (SNU-638): 5.91 | pIC50 (BT-549 [22]): 6.13 | pIC50 (A549): 6.21 | pIC50 (HCT-116): 6.08

Source: ChEMBL document CHEMBL4196007, “Design, synthesis and biological evaluation of novel 4-aminoquinazolines as dual target inhibitors of EGFR-PI3Kα” (Eur J Med Chem, 2018)
